# What was measured:
# GSK3b = GSK3b (Homo sapiens, UniProt P49841); conditions: cell-free
# Method: (§1) The tyrosine kinase activities were determined using enzyme-linked immunosorbant assay (ELISA). The serine/threonine kinase activities were detected by Caliper Mobility Shift Assay on EZ Reader (Caliper Life Sciences, MA) according to the instruction.
# (§2) The kinase domain of EGFR, ErbB-2, IGF1R, VEGFR2, FGFR1, PDGFRα, c-Src, c-Met, RON, c-Kit, EphA2 and EphB2 were expressed using the Bac-to-Bac^TM baculovirus expression system (Invitrogen, Carlsbad, CA, USA) and purified on Ni-NTA columns (QIAGEN Inc., Valencia, CA, USA). VEGFR1, PDGFRβ and c-Abl were purchased from Upstate Biotechnology Inc. (Charlottesville, Virginia, USA). […] EGF was purchased from R&D, Minneapolis, […]. Poly(Glu-Tyr)(4:1), the substrate of tyrosine kinase, was from Sigma-Aldrich Corp. St. Louis, MO, USA.
# Pim2 = Pim2 (Homo sapiens, UniProt Q9P1W9); conditions: Pim2, cell-free
# Chain of Pim2 (Q9P1W9 whole entry): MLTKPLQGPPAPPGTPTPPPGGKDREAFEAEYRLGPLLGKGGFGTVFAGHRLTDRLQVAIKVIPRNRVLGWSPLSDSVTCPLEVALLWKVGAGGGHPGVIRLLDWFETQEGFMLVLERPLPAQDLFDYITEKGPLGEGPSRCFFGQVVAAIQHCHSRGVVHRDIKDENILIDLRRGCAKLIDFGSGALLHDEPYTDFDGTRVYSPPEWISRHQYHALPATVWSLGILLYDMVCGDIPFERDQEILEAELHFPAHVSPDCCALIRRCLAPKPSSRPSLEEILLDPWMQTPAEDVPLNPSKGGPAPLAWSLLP
# Method: as §1, §2
# AUR A = AUR A (Homo sapiens, UniProt O14965); conditions: cell-free
# Chain of AUR A (O14965 whole entry): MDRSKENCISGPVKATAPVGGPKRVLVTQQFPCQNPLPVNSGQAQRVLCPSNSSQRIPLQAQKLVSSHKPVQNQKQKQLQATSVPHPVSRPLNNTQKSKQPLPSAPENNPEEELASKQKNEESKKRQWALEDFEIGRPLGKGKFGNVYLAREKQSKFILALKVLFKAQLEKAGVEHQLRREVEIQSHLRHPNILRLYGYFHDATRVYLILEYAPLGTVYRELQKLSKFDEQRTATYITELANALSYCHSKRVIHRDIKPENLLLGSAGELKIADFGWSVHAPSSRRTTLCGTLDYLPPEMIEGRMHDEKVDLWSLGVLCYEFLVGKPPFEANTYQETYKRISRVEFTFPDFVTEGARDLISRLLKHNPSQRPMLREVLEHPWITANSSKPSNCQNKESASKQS
# Method: as §1, §2
# [1] = system: phosphorylation of EGFR and downstream pathways in NCI-H1975 cells; test: Western blot of EGF-induced phosphorylation; type: cell-based, human
# Method: as §1
# (§3) Cell viability was determined using sulforhodamine B assay. IC50 values were determined based on the results of three independent experiments. […] Whole-cell lysates were assayed for total EGFR and phosphorylation of EGFR by immunoblotting. […] Cell viability was determined using sulforhodamine B assay.
# [2] = system: EGFR phosphorylation in NIH3T3-EGFR T790M/L858R cells; test: Western blot of EGFR phosphorylation; type: cell-based; conditions: 6 h, immunoblotting
# Method: as §3
# SK-OV-3 cells = test: Cell proliferation SRB assay; type: cell-based; conditions: Homo sapiens, SK-OV-3, 72 h, range given for four cell lines together, read-out: IC50 (antiproliferative)
# Method: (§4) Cell proliferation was evaluated using the SRB (Sulforhodamine B) assay as previously described. Briefly, cells were seeded into 96-well plates and grown for 24 h. […] The medium remained unchanged until the completion of the experiment. The cells were then fixed with 10% precooled trichloroacetic acid (TCA) for 1 h at 4°C and stained for 15 min at room temperature with 100 μL of 4 mg/mL SRB solution (Sigma) in 1% acetic acid. The SRB was then removed, and the cells were quickly rinsed five times with 1% acetic acid. After cells were air-dried, protein-bound dye was dissolved in 150 μL of 10 mmol/L Tris base for 5 min and measured at 515 nm using a multiwell spectrophotometer (VERSAmax, Molecular Devices). […] The IC50 value was obtained by the Logit method and was determined from the results of at least 3 independent tests.
# NCI-H23 cells = test: Cell proliferation SRB assay; type: cell-based; conditions: Homo sapiens, NCI-H23, 72 h, range given for four cell lines together, read-out: IC50 (antiproliferative)
# Method: as §4
# MDA-MB-468 cells = test: Cell proliferation SRB assay; type: cell-based; conditions: Homo sapiens, MDA-MB-468, 72 h, range given for four cell lines together, read-out: IC50 (antiproliferative)
# Method: as §4
# Chain of GSK3b (P49841 whole entry): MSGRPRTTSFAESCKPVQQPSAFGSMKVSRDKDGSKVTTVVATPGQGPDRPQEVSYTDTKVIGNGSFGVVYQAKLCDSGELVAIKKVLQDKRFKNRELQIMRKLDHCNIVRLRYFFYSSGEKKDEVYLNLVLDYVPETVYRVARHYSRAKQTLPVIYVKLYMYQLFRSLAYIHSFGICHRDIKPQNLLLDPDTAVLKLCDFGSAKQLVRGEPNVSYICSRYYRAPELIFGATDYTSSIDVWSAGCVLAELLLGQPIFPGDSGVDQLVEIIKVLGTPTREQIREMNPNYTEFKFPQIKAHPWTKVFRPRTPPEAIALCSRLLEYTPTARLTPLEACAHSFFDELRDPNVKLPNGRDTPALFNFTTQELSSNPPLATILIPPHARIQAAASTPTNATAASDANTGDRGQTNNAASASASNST
structure (smiles),measurement,setting,value
C=CC(=O)Nc1ccc2ncnc(Nc3ccc(OCc4cccc(F)c4)c(Cl)c3)c2c1 [AST1306],IC50,GSK3b,> 10 µM
same,IC50,Pim2,> 10 µM
same,IC50,AUR A,> 10 µM
same,inhibition of phosphorylation of EGFR and downstream pathways,[1],blocked phosphorylation of EGFR and downstream pathways
same,inhibition of EGFR phosphorylation,[2],effectively inhibited EGFR phosphorylation
same,IC50,SK-OV-3 cells,6.2 to 7.5 µM
same,IC50,NCI-H23 cells,6.2 to 7.5 µM
same,IC50,MDA-MB-468 cells,6.2 to 7.5 µM

# Reference: article PMC3138742 (PLoS ONE, 2011)
